Target: T1, PAK7 (KIAA1264) (Homo sapiens, UniProt Q9P286)
T1 construct: purchased Thermo Fisher Scientific (Life Technologies) SelectScreen
Experiment: SelectScreen Z'LYTE
Type: biochemical
Procedure, shortened: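 Percent values come from Thermo SelectScreen profiling of NU5455, combining activity and binding assays. CSF1R was run in Z'LYTE format at Km app ATP, and CAMK1 in Adapta format with ATP listed at 10.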

T1 sequence (Q9P286 whole entry): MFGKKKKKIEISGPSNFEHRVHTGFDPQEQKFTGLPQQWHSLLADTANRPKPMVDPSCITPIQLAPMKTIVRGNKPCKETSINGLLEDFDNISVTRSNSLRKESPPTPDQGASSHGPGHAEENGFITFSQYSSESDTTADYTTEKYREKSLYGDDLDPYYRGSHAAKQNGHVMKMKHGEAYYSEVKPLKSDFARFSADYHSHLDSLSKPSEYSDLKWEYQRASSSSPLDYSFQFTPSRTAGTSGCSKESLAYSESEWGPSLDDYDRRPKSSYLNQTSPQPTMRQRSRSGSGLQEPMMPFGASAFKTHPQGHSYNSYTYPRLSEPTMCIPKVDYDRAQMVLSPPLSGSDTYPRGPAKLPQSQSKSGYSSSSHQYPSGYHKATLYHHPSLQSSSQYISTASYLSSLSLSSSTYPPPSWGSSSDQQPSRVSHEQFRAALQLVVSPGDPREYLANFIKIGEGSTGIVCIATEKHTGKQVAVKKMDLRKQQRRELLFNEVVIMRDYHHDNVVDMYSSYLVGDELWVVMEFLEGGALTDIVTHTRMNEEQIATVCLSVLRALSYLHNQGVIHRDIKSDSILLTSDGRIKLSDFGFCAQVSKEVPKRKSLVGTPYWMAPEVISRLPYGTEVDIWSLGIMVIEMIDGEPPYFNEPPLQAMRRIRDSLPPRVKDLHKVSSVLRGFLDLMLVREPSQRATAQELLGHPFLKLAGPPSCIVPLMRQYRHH

CN(C(=O)CN1CCOCC1)c1ccc2sc3c(-c4cccc5c(=O)cc(N6CC7CCC(C6)O7)oc45)cccc3c2c1 [NU5455] was tested, and the inhibition at 1 µM was 5.7%.

Reference: PMC6934184, “Selective DNA-PKcs inhibition extends the therapeutic index of localized radiotherapy and chemotherapy” (The Journal of Clinical Investigation, 2019)
